In the assay the test system is Human prostate cancer cell lines (PC-3 cells). Briefly: Measurement of cell death-inducing activity (Test Example 1). The assay is classed as cell-based. As to conditions: PC-3, 48 h, 48 hours after addition, tested at 10, 1, 0.1, 0.025 and 0.00625 μmol/L, qualitative evaluation of 10 fields, read-out: Concentration showing the cell death-inducing activity (cell death-inducing rate not less than 40%). In short, it runs like this:
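Compound treatment lasted 48 h at 10 to 0.00625 μmol/L (five levels, DMSO as control) on PC-3 cells pre-cultured 48 h at 37 °C, 5% CO2 after seeding at 1×10^5 cells/well. A cell death-inducing rate of 40% or more counted as active.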
Consider `COc1ccccc1-c1cc(NC(=O)OCc2ccc3nn(C)cc3c2)n(C)n1` [Example 9-288], for which the minimal effective concentration is 1 µM. With `CCn1nc(-c2ccc(F)cc2OC)cc1NC(=O)OCc1ccc2c(c1)ncn2CC` [Example 9-220] the figure was 0.1 µM. With `CCCn1cnc2cc(COC(=O)Nc3sc(-c4ccc(Cl)cc4OC)nc3C)ccc21` [Example 9-67] the figure was 0.025 µM; with `COc1ccc(/C=N/NC(=O)c2oc(-c3ccccc3OC)nc2C)cc1O` [Example 26-2, 2-(2-Methoxyphenyl)-4-methyloxazole-5-carboxylic acid[N′-(3-hydroxy-4-methoxylphenyl)methylidene]hydrazide], 10 µM; with `COc1ccc(/C=N/NC(=O)c2sc(-c3ccccc3C)nc2C)cc1O` [Example 23-12], 0.1 µM. Next, `COc1cc(C)ccc1-c1nc(C)c(NC(=O)OCc2ccc3c(c2)nc2n3CCN(C)C2)s1` [Example 38-2, [2-(2-Methoxy-4-methylphenyl)-4-methylthiazol-5-yl]carbamic acid 2-methyl-1,2,3,4-tetrahydrobenzo[4,5]imidazo[1,2-a]pyrazin-8-ylmethyl ester]: 10 µM. As to `Cc1ccc(-c2cc(NC(=O)OCc3ccc4c(cnn4C)c3)n(C)n2)c(C)c1` [Example 9-285], the minimal effective concentration came out at 0.1 µM. In the case of `CCc1ccccc1-c1nc(C)c(NC(=O)OCc2ccc3c(cnn3CC)c2)s1` [Example 9-133], the minimal effective concentration came to 0.1 µM. Turning to `COc1cc(Cl)ccc1-c1cc(C(=O)N/N=C/c2ccc3c(c2)nc2n3CCOC2)sn1` [Example 49-5, 3-(4-Chloro-2-methoxyphenyl)isothiazole-5-carboxylic acid[1-(3,4-dihydro-1H-2-oxa-4a,9-diaza-fluoren-7-yl)methylidene]hydrazide], the minimal effective concentration was found to be 1 µM. With `Cc1cc(Cl)ccc1-c1nc(C)c(NC(=O)OCc2ccc3c(c2)nc2n3C(C)CCC2)s1` (centres unmarked) [Example 9-119] the figure was 10 µM; with `COc1ccc(/C=N/NC(=O)c2sc(-c3cccc(Cl)c3Cl)nc2C)cc1O` [Example 23-15], 0.1 µM. With `COc1cc(Cl)ccc1-c1nc(C)c(COC(=O)Nc2ccc3c(cnn3C)c2)s1` [Example 13-41] the figure was 1 µM. As to `CCn1nc(-c2ccc(C)cc2OC)cc1COC(=O)Nc1ccc2c(c1)ncn2C` [Example 13-89], the minimal effective concentration was 0.00625 µM. Take `Cc1ccc(-c2cc(COC(=O)Nc3ccc4c(cnn4C)c3)n(C)n2)c(C)c1` [Example 13-131]: the minimal effective concentration is 1 µM. For the compound `CCc1nc(-c2ccc(Cl)cc2OC)sc1COC(=O)Nc1ccc2c(c1)ncn2C` [Example 13-67], the minimal effective concentration came out at 0.1 µM.

As for `CCc1nc(-c2ccc(C)cc2OC)sc1NC(=O)OCc1ccc2c(c1)ncn2CC` [Example 9-165], the minimal effective concentration was 0.00625 µM. In the case of `CCc1nc(-c2ccccc2OC)sc1NC(=O)OCc1ccc2c(c1)nc1n2CCC1` [Example 9-347], the minimal effective concentration is 1 µM.

`COc1cc(C)ccc1-c1cc(COC(=O)Nc2ccc3c(c2)ncn3C)n(C)n1` [Example 13-88]: the minimal effective concentration was 0.00625 µM. In the case of `CCn1cnc2cc(NC(=O)OCc3sc(-c4ccc(C)cc4C)nc3C)ccc21` [Example 13-15], the minimal effective concentration came out at 0.025 µM. Next, `CCn1c(C)nc2cc(COC(=O)Nc3sc(-c4ccccc4OC)nc3C)ccc21` [Example 9-85]: 1 µM; `Cc1nc(-c2ccc(F)cc2Cl)sc1COC(=O)Nc1ccc2c(c1)nc1n2CCC1` [Example 13-30]: 0.1 µM; `CCn1ncc2cc(COC(=O)Nc3sc(-c4ccc(Cl)cc4OC)nc3C)ccc21` [Example 9-136]: 0.00625 µM.

`CCCn1cnc2cc(COC(=O)Nc3sc(-c4ccc(C)cc4OC)nc3C)ccc21` [Example 9-68]: the minimal effective concentration came to 0.1 µM. Take `CCn1cc2cc(COC(=O)Nc3sc(-c4ccc(Cl)cc4OC)nc3C)ccc2n1` [Example 9-154]: the minimal effective concentration came to 0.025 µM.

Turning to `Cc1nc(-c2ccccc2F)sc1NC(=O)OCc1ccc2c(c1)ncn2C` [Example 9-43], the minimal effective concentration is 1 µM. With `COc1ccccc1-c1nc(C)c(NC(=O)OCc2ccc3c(ccn3C)c2)s1` [Example 9-29], the minimal effective concentration is 10 µM.

As for `COc1cc(Cl)ccc1-c1nc(C)c(NC(=O)OCc2ccc3c(c2)ncn3C(C)C)s1` [Example 9-71], the minimal effective concentration turned out to be 0.025 µM. For the compound `CCn1nc(-c2ccc(F)cc2OC)cc1COC(=O)Nc1ccc2c(cnn2C)c1` [Example 13-126], the minimal effective concentration is 10 µM. With `COc1ccc(COCC(=O)c2sc(-c3ccc(C)cc3C)nc2C)cc1` [Example 31-1, 1-[2-(2,4-Dimethylphenyl)-4-methylthiazol-5-yl]-2-(4-methoxybenzyloxy)ethanone], the minimal effective concentration was 10 µM. For `CCn1nc(-c2ccc(F)cc2OC)cc1COC(=O)Nc1ccc2c(c1)ncn2C` [Example 13-81], the minimal effective concentration worked out at 0.025 µM. With `Cc1ccc(-c2cc(COC(=O)Nc3ccc4c(c3)nc3n4CCOC3)n(C)n2)c(C)c1` [Example 13-103] the figure was 0.00625 µM; with `COc1ccc(/C=N/NC(=O)c2sc(-c3ccc(Cl)cc3)nc2C)cc1B(O)O` [Example 23-140], 1 µM. With `CCn1cc2cc(NC(=O)OCc3sc(-c4ccc(F)cc4Cl)nc3C)ccc2n1` [Example 13-56] the figure was 0.1 µM; with `Cc1cc(Cl)ccc1-c1nc(C)c(C(=O)N/N=C/c2cc(C)c(O)c(C)c2)s1` [Example 23-123], 0.1 µM.

`COc1ccc(/C=N/NC(=O)c2[nH]c(-c3ccc(Cl)cc3)nc2C)cc1O` [Example 25-5, 2-(4-Chlorophenyl)-5-methyl-3H-imidazole-4-carboxylic acid[1-(3-hydroxy-4-methoxyphenyl)methylidene]hydrazide]: the minimal effective concentration worked out at 10 µM. Turning to `COc1cc(F)ccc1-c1cc(NC(=O)OCc2ccc3c(c2)ncn3C)n(C)n1` [Example 9-217], the minimal effective concentration came out at 0.025 µM. Take `CCc1nc(-c2ccc(Cl)cc2C)sc1NC(=O)OCc1ccc2c(c1)ncn2CC` [Example 9-345]: the minimal effective concentration came out at 0.025 µM. With `COc1cc(Cl)ccc1-c1cc(COC(=O)Nc2ccc3c(c2)CCO3)n(C)n1` [Example 13-73] the figure was 10 µM; with `COc1ccc(/C=N/NC(=O)c2sc(-c3cccc(OC)c3C)nc2C)cc1O` [Example 23-130], 1 µM; with `COc1cc(Cl)ccc1-c1nc(C)c(C(=O)N/N=C/c2ccc3c(c2)CCO3)s1` [Example 23-83], 0.1 µM. For the compound `COc1ccccc1-c1nc(C)c(C(=O)N/N=C/c2ccc(SC)cc2)s1` [Example 23-70], the minimal effective concentration was 0.1 µM. With `CCn1nc(-c2ccc(C)cc2OC)cc1COC(=O)Nc1ccc2c(cnn2C)c1` [Example 13-130] the figure was 1 µM; with `COc1ccc(/C=N/NC(=O)c2sc(-c3cccc(C)c3C)nc2C)cc1O` [Example 23-22], 1 µM. Next, `COc1ccc(/C=N/NC(=O)c2sc(-c3ncccc3Cl)nc2C)cc1O` [Example 23-139]: 1 µM.

On to `COc1cc(C)ccc1-c1cc(NC(=O)OCc2ccc3nn(C)cc3c2)n(C)n1` [Example 9-293], for which the minimal effective concentration worked out at 0.1 µM. Next, `CCn1nc(-c2ccc(C)cc2C)cc1NC(=O)OCc1ccc2cn(C)nc2c1` [Example 9-303]: 1 µM. As to `COCc1nc2cc(COC(=O)Nc3cc(-c4ccc(Cl)cc4OC)nn3C)ccc2n1C` [Example 9-274], the minimal effective concentration came to 1 µM. With `COc1ccccc1-c1nc(C)c(NC(=O)OCc2ccc3c(c2)nc(C)n3C)s1` [Example 9-74] the figure was 1 µM; with `COc1cc(F)ccc1-c1nc(C)c(NC(=O)OCc2ccc3c(c2)nnn3C)s1` [Example 9-14], 0.025 µM.

Turning to `CCc1nc(-c2ccc(Cl)cc2C)sc1NC(=O)OCc1ccc2c(c1)nc1n2CCOC1` [Example 9-377], the minimal effective concentration came out at 0.025 µM. As for `CCn1nc(-c2ccc(Cl)cc2OC)cc1NC(=O)OCc1ccc2c(c1)ncn2CC` [Example 9-224], the minimal effective concentration was 0.00625 µM. As to `COc1ccccc1-c1nc(C)c(C(=O)N/N=C/c2ccc3occc3c2)s1` [Example 23-159], the minimal effective concentration turned out to be 0.1 µM. With `COc1ccc(/C=N/NC(=O)c2cnc(-c3ccccc3C)[nH]2)cc1O` [Example 25-3, 2-(2-Methylphenyl)-3H-imidazole-4-carboxylic acid[1-(3-hydroxy-4-methoxyphenyl)methylidene]hydrazide] the figure was 10 µM.

Regarding `Cc1nc(-c2ccc(F)cc2Cl)sc1NC(=O)OCc1ccc2c(c1)nc(C)n2C` [Example 9-79], the minimal effective concentration was found to be 0.1 µM. Next, `COc1cc(F)ccc1-c1nc(C)c(NC(=O)OCc2ccc3c(c2)nc2n3CCOC2)s1` [Example 9-92]: 0.00625 µM. Next, `CCc1nc(-c2ccc(F)cc2C)sc1NC(=O)OCc1ccc2c(c1)nc1n2CCCC1` [Example 9-355]: 1 µM; `Cc1nc(-c2ccc(F)cc2Cl)sc1NC(=O)OCc1ccc2c(c1)ncn2C` [Example 9-47]: 0.025 µM. With `COc1cc(C)ccc1-c1nc(C)c(NC(=O)OCc2ccc3c(c2)nc2n3CC(O)C2)s1` (centres unmarked) [Example 9-341] the figure was 0.025 µM; with `Cc1cc(F)ccc1-c1nc(C)c(COC(=O)Nc2ccc3c(c2)nc2n3CCOC2)s1` [Example 13-25], 0.025 µM.
